Data as given in US20030073662A1, “Regulation of cellular functions by ectopic expression of non-endogenous cell signalling receptors” (priority 1995, published 2003).
Read-outs that look alike come from different tables or passages of the source. Positions of bridges follow the written chain, without caps; N, C: chain ends. No end group written: not given here.

Key:
[1] = test system: mouse TRH-R / phosphoinositide pathway in primary hepatocytes; assay: Stimulation of inositol phosphate formation in hepatocytes from rats after in vivo transfer of the TRH-R cDNA; assay type: cell-based, rat
Experimental: (§1) Primary hepatocytes were exposed to the vectors AdCMV.βgal or AdCMV.mTRH-R. After 24 hr, the cells were labeled for 24 hr with myo-[^3H]inositol (myo-[2-^3H]inositol; 20 Ci/mmol, Amersham Corporation, Arlington Heights, Ill.), incubated (5 min, 37° C.) with 10 mM LiCl, stimulated (60 min, 37° C.) with methyl-TRH. The cells were then lysed, the inositol phosphates were separated by anion-exchange chromatography and the radioactivity counted. The fold stimulation of inositol phosphates formation was calculated as: (dpm in inositol phosphates ×100/dpm in lipids of stimulated cells) (dpm in inositol phosphates ×100/dpm in lipids of unstimulated cells) (35). For each dose of vector, triplicate measurements were made in hepatocytes from two different animals.
(§2) Sprague-Dawley rats (250-300 g, 3 months old, fed ad libitum) were anaesthetized with ketamine-HCl (60 mg/kg) and xylazine (5 mg/kg). The Ad vectors [AdCMV.mTRH-R, AdCMV.βgal, AdCMV.Null (the “Null” vector is similar to the other vectors except that the expression cassette contains the CMV promoter but no recombinant gene) (31)] were administered via the right external jugular vein (5×10^9 pfu, 100 μl 0.9% NaCl). The livers were recovered 5 days later.
Measurement of inositol phosphates formation was identical to that described for FIG. 3. Triplicate measurements were made from three individual animals per condition.

[2] = molecular target: T1, mouse thyrotropin releasing hormone receptor (TRH-R) (Mus musculus, UniProt P21761); assay type: binding
T1 construct: containing the protein-coding region of the mouse TRH-R cDNA, nucleotides 233-1462 of plasmid pBSmTRHR; expressed in transfected cells; host or cells: Primary Sprague-Dawley rat hepatocytes transduced with adenovirus AdCMV.mTRH-R, either in vitro (moi 1-100) or in vivo (i.v., hepatocytes isolated 5 days later)
T1 sequence (P21761 whole entry): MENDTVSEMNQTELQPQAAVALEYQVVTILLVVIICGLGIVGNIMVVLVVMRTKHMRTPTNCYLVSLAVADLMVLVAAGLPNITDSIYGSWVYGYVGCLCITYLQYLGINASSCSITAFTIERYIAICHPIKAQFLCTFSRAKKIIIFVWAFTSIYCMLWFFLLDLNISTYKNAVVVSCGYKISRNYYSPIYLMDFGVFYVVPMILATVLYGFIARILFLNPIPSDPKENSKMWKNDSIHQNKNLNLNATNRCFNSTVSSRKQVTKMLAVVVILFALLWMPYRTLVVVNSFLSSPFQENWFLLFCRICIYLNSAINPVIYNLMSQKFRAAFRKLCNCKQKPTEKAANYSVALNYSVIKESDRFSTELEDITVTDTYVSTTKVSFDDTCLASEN
Experimental: (§3) FIG. 2 illustrates the binding of methylthyrotropin releasing hormone (methyl-TRH) to hepatocytes following adenovirus-mediated in vitro transfer of the TRH-R cDNA. […] Following incubation for 24 hr with the vectors AdCMV.βgal or AdCMV.mTRH-R, the hepatocytes (10^6/well) were incubated for 60 min with [^3H]methyl-TRH (82.5 Ci/mmol, New England Nuclear-Dupont, Boston, Mass.) or [^3H]methyl-TRH plus excess unlabeled methyl-TRH (Sigma, St. Louis, Mo.). Free ligand was removed by aspirating the medium and washing the cells 5 times with 2 ml (4° C.) Hanks balanced salt solution. Cell associated radioactivity was measured by dissolving the cells with 1 ml of 0.4 N NaOH and counting. Specific binding of the [^3H]methyl-TRH was calculated as: [(dpm of [^3H]methyl-TRH)-(dpM [^3 H]methyl-TRH in the presence of unlabeled methyl-TRH)] (34). For each dose of the vector, triplicate measurements were made in hepatocytes from two different animals. The number of TRH-R receptor sites was calculated assuming a one-to-one stoichiometry of ligand to receptor and a homogeneous distribution of TRH-Rs.

[3] = molecular target: T1, mouse thyrotropin releasing hormone receptor (TRH-R); assay: [3H]methyl-TRH binding to primary hepatocytes from rats after in vivo adenovirus-mediated transfer of the TRH-R cDNA; parameters: species or system rat
Experimental: as §3, §2
FIGS. 4 and 5 are Northern analyses. Liver RNA (10 μg/lane) was evaluated with a mouse TRH-R cDNA probe (FIG. 4, lanes 1 and 2) or, as a positive control, […] cDNA (FIG. 5, lanes 3 and 4). The sizes of the transcripts are indicated. Lanes 1 and 3 (FIG. 4 and FIG. 5, respectively) are animals receiving AdCMV. βgal. […] The analysis of [^3H]methyl-TRH binding was identical to that described for FIG. 2. Triplicate measurements were made from three individual animals per condition.

[4] = test system: mouse TRH-R / phosphoinositide pathway in primary hepatocytes; assay: Stimulation of inositol phosphate formation in hepatocytes after in vitro transfer of the TRH-R cDNA; assay type: cell-based, rat
Source text: The replication-deficient recombinant adenovirus vectors are all E1a^−, partial E1b^−, partial E3^− based on adenovirus type 5, in which an expression cassette containing a promoter, driving the expression of a recombinant gene, is inserted at the site of the El deletion. AdCMV.mTRH-R contains an expression cassette with the cytomegalovirus early intermediate promoter/enhancer (CMV) followed by the mouse thyrotropin releasing hormone receptor (TRH-R) cDNA (30). AdCMV.βgal carries the CMV promoter and the E.coli LacZ gene [encoding β-galactosidase (βgal)] (31). The adenovirus vectors were prepared, purified, and titered as previously described (32,33). […]
as §1, with “For each dose of vector, triplicate measurements were made in hepatocytes from two different animals.” left out

Sprague-Dawley rats = assay: Modulation of serum glucose in rats after in vivo transfer of the TRH-R cDNA to the liver; parameters: species or system rat
Experimental: as §2
The vectors AdCMV.mTRH-R or AdCMV.Null (5×10^9 pfu), or saline (0.9%) as negative control (all in 100 μl) were administered to rats as described above. Five days later, the animals were anaesthetized by methoxyflurane (Pitman-Moore, Mundelein, Ill.) inhalation and the left and right external jugular veins were cannulated. After 15 min to permit stabilization, a 15 min baseline period was started, during which serum samples for glucose levels were obtained every 5 min. At “0 time” methyl-TRH (500 μg in 100 μl) or saline (0.9%, 100 μl ) was administered in one cannula and the serum samples obtained from the other cannula every 5 min for 55 min. Serum glucose levels were determined by colormetric assay (Sigma Diagnostics, St. Louis, Mo.).
The baseline glucose levels were determined for each animal as an average from −15 to 0 before administration of methyl-TRH or saline. The data are presented as the absolute change from the average baseline serum glucose level (mM) using each individual animal as its own control, and averaging the values at each time point for each group of animals. AdCMV.mTRH-R (IV)/TRH=vector administered intravenously at day 0, methyl-TRH administered at day 5, n=6 animals; AdCMV.mTRH-R(IP)/TRH=vector administered via the portal vein at day 0, methyl-TRH administered at day 5, n=5; AdCMV.Null(IV)/TRH=vector administered intravenously at day 0, methyl-TRH at day 5, n=6; saline/TRH=saline administered instead of vector at day 0, methyl-TRH at day 5, n=6; and naive/saline=nothing administered at day 0, saline at day 5, n=5. The data is presented as the mean for all animals in the group at each time point. The normal range for serum glucose Sprague-Dawley rats is 2.5 6.7 mM(36).
FIG. 9 illustrates the average change in serum glucose levels from baseline. The average change in serum glucose levels from baseline was determined for each time point from 15 to 55 min after administration of methyl-TRH or saline on day 5. The data are presented as mean±standard deviation. All statistical comparisons were made using the two-tailed Student's t-test.

[5] = hepatocytes uninfected or infected with control vector AdCMV.βgal
[6] = read-out: Kd of methyl-TRH binding
[7] = hepatocytes from AdCMV.mTRH-R infected animals, not shown

What does the source list for `NC(=O)[C@@H]1CCCN1C(=O)[C@H](Cc1cnc[nH]1)NC(=O)[C@@H]1CCC(=O)N1` [TRH, thyrotropin-releasing hormone]?
fold stimulation of inositol phosphate formation above controls of no added methyl-TRH ([1]; hepatocytes from animals infected 5 days previously with AdCMV.mTRH-R): 16.9±1.8 fold; stimulation of inositol phosphate formation ([1]; hepatocytes from uninfected animals and animals infected in vivo with AdCMV.βgal): no stimulation of inositol phosphate formation

Which results are given for `Cn1cnc(C[C@H](NC(=O)[C@@H]2CCC(=O)N2)C(=O)N2CCC[C@H]2C(N)=O)c1` [methyl-TRH, methylthyrotropin releasing hormone]?
internalization of ligand-receptor complex ([2]; hepatocytes infected with AdCMV.mTRH-R, not shown): internalized; specific binding of methyl-TRH [2, 5]: no specific binding; Kd [2, 6]: 3.18 ± 0.39 nM; internalization of methyl-TRH complex [3, 7]: underwent internalization; methyl-TRH specific binding ([3]; hepatocytes from animals receiving AdCMV.mTRH-R in vivo): high levels of methyl-TRH specific binding; methyl-TRH specific binding ([3]; hepatocytes from naive animals or animals receiving control vector AdCMV.βgal): no specific methyl-TRH binding; Kd [3, 6]: 2.51 ± 0.32 nM; inositol phosphates formation ([4]; hepatocytes infected in vitro with AdCMV.mTRH-R, dependent on vector dose): increased amounts of inositol phosphates; inositol phosphates formation [4, 5]: no increase in inositol phosphates; period of increase in formation of inositol phosphates after addition [1, 7]: at least 1 hr; increase in blood glucose over baseline from 15 to 55 min after administration (Sprague-Dawley rats; methyl-TRH 500 μg IV, rats given AdCMV.mTRH-R intravenously 5 days previously): 1.73 ± 0.26 mM; change in blood glucose over baseline (Sprague-Dawley rats; methyl-TRH IV, control rats given saline (similar with AdCMV.Null) 5 days previously): small increase in blood glucose; time of peak rise in blood glucose after administration (Sprague-Dawley rats; methyl-TRH IV, rats given AdCMV.mTRH-R intravenously 5 days previously): 15 min; time for which elevation in blood glucose was maintained (Sprague-Dawley rats; methyl-TRH IV, rats given AdCMV.mTRH-R intravenously 5 days previously, experiment terminated at 55 min): at least 55 min; rise in blood glucose compared with intravenous vector group (Sprague-Dawley rats; methyl-TRH IV, rats given AdCMV.mTRH-R via the portal vein 5 days previously): superimposable

For “[Arg^8]vasopressin (CYFQNCPRG-NH2; disulfide 1-6; ends not checked; UniProt P01185 20-28, looked up) [positive control for rise in blood glucose]”, which “change in blood glucose” value (Sprague-Dawley rats; positive control, intravenous route, 55 min evaluation, not shown) is on record?
Its value is “an increase in blood glucose, followed by a decrease”.
